# Values joined by “and” are separate entries in the source; they are usually repeats but may differ in a detail not shown here. Equal entries are not always repeated. Structures can show the parent of a compound that is named as a salt. Where two headings read alike, the source gives them in different places.
# What was measured:
# [1] = the molecule shown is the open-chain precursor, crosslinker bond, 11-membered ring
# MCL-1 [2] = target: T1, MCL-1 (Homo sapiens, UniProt Q07820, K194A/K197A/R201A); assay: Protein-protein interaction assay MCL-1/Noxa BH3 peptide, TR-FRET (MCL-1 assay, Assay 1); format: binding; settings: MCL-1 Assay [M] (median), MBP-MCL-1 / Noxa BH3 peptide
# T1 sequence (Q07820 173-321 K194A/K197A/R201A, looked up): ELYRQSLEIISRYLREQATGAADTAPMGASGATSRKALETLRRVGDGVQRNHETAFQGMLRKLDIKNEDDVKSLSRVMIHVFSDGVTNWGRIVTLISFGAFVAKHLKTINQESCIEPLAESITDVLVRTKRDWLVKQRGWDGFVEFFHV
# Outline: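 Human MBP-fused MCL-1 (aa 173-321; 1 nM final) was pre-incubated 10 min at 22 °C with compound in pH 7 Tris buffer containing NaCl, KF, Tween-20, DTT and BGG. Displacement of biotinylated Noxa BH3 peptide was read by TR-FRET (anti-MBP-Eu cryptate/streptavidin-XL665) after 1 h at 22 °C plus overnight at 4 °C. IC50 came from four-parameter fits against DMSO controls.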
# BCL-XL = BCL-XL (Homo sapiens, UniProt Q07817); assay: Protein-protein interaction assay BCL-XL/Bad BH3 peptide, TR-FRET (BCL-XL assay, Assay 2); format: binding; settings: His-BCL-XL / Bad BH3 peptide, median
# BCL-XL, sequence (Q07817 1-212): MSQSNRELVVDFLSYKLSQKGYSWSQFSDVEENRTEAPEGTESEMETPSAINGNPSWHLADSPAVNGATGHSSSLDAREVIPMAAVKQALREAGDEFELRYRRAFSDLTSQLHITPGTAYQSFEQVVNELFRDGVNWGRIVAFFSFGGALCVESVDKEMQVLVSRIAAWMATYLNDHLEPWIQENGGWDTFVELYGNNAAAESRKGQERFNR
# BCL-2 = BCL-2 (Homo sapiens, UniProt P10415); assay: Protein-protein interaction assay BCL-2/Bad BH3 peptide, TR-FRET (BCL-2 assay, Assay 3); format: binding; settings: His-BCL-2 / Bad BH3 peptide, median
# BCL-2, sequence (P10415 1-211): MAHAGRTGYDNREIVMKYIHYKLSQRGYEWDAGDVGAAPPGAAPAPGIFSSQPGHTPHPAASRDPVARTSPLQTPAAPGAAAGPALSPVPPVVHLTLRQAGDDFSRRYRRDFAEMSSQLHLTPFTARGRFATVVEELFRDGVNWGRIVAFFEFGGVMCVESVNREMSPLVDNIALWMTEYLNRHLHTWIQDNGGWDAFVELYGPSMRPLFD
# SUDHL5 [3] = assay: Induction of caspase-3/7 activity in SUDHL5 cells (Assay 4); format: cell-based; settings: SUDHL5, 3 hours treatment, Caspase-Glo 3/7, median, read-out: Caspase SUDHL5 [M] (median)
# Outline: (§1)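 DLBCL lines SUDHL5 and SUDHL10 were treated with compound for 3 h at 37 °C. Caspase-3/7 activity was then read by Caspase-Glo 3/7 luminescence after 1 h at 37 °C. Medium-only background was subtracted and values were normalized to the mean of DMSO-treated cells.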
# SUDHL10 [4] = assay: Induction of caspase-3/7 activity in SUDHL10 cells (Assay 4); format: cell-based; settings: SUDHL10, 3 hours treatment, Caspase-Glo 3/7, median, read-out: Caspase SUDHL10 [M] (median)
# Outline: as §1
# SUDHL5 [5] = assay: Induction of cytotoxicity in SUDHL5 cells, CellTiter-Glo (Assay 6); format: cell-based; settings: SUDHL5, 5 hours incubation, median, read-out: Cytotox SUDHL5 [M] (median)
# Outline: (§2)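 Cells plated and held overnight at 37° C in a humidified incubator, then compound-treated for 5 hours at 37° C. Viability read by CellTiter-Glo luminescence after 15 minutes shaking at room temperature; cell-free medium served as control.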
# SUDHL10 [6] = assay: Induction of cytotoxicity in SUDHL10 cells, CellTiter-Glo (Assay 6); format: cell-based; settings: SUDHL10, 5 hours incubation, median, read-out: Cytotox SUDHL10 [M] (median)
# Outline: as §2
# SUDHL5 [7] = assay: Anti-proliferative effect in SUDHL5 cells, CellTiter-Glo (Assay 7); format: cell-based; settings: SUDHL5, 72 hours incubation, CellTiter-Glo, median, read-out: Antiproli SUDHL5 [M] (median)
# Outline: (§3)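 CellTiter-Glo luminescence after 72 h compound exposure at 37 °C; a parallel time-zero plate was read the same way. IC50 derived relative to day 0 signal and DMSO control.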
# SUDHL10 [8] = assay: Anti-proliferative effect in SUDHL10 cells, CellTiter-Glo (Assay 7); format: cell-based; settings: Homo sapiens, SU-DHL10, SUDHL10, 72 hours incubation, median, read-out: Antiproli SUDHL10 [M] (median)
# Procedure: Assessment of the Anti-Proliferative Effect of Compounds in Different Cell Lines
# The impact of compounds on the proliferation of different cell lines was assessed using the CellTiter-Glo® Luminescent Cell Viability reagent from Promega (G7573).
# In parallel, cells were plated in a reference (day 0) plate for time zero determination. Cells were incubated in a humidified incubator at 37° C. overnight.
# Rim wells were excluded. The cells were incubated for 72 hours in a humidified incubator at 37° C. The day 0 plate was measured by adding 30 μL/well of CTG solution (CellTiter-Glo® Luminescent Cell Viability reagent, Promega G7573) to time zero wells in the reference plate followed by a 10 minutes incubation and luminescence reading at 0.1 ms. using the PHERAstar FS microplate reader (BMG Labtech).
# After 72 hours incubation, the treated plates were measured in the same way as the day 0 plate mentioned above. The Bella DRC Master Sheet was used to calculate IC50s, with CI=day 0 values and C0=DMSO control values.
# AMO-1 = assay: Anti-proliferative effect in AMO-1 cells, CellTiter-Glo (Assay 7); format: cell-based; settings: AMO-1, 72 hours incubation, CellTiter-Glo, several values per example, read-out: Antiproli AMO-1
# Outline: as §3
# A2780 = assay: Anti-proliferative effect in A2780 cells, CellTiter-Glo (Assay 7); format: cell-based; settings: Homo sapiens, A2780, 72 h, A2780, 72 hours incubation, CellTiter-Glo; several values per example; read-out: Antiproli A2780
# Outline: as §3
# MV-4-11 = assay: Anti-proliferative effect in MV-4-11 cells, CellTiter-Glo (Assay 7); format: cell-based; settings: MV-4-11, 72 hours incubation, CellTiter-Glo, several values per example, read-out: Antiproli MV-4-11
# Outline: as §3
# MCL-1 [9] = target: T1, MCL-1; assay: Protein-compound interaction assay, surface plasmon resonance (SPR assay, Assay 8); format: binding; settings: geometric mean; for Kd: KD [M]
# Source text: Protein-Compound Interaction Assay (SPR Assay)
# The ability of the compounds described in this invention to bind to MCL-1 may be determined using surface plasmon resonance (SPR). This allows for the quantification of binding in terms of the equilibrium dissociation constant (KD [M]), as well as association and dissociation rate constants (kon [1/M 1/s] and koff [1/s], respectively). The measurements may be performed using Biacore® T200 or Biacore® S200 instruments (GE Healthcare).
# Briefly, carboxymethylated dextran biosensor chips (Series S Sensor Chip CM5, GE Healthcare) were activated with 1-ethyl-3-(3-dimethylaminopropyl)-carbodiimide hydrochloride (EDC) and N-hydroxysuccinimide (NHS) according to the supplier's instructions. MBP-MCL-1 was diluted in 1×PBS-P+ (GE Healthcare) and injected on the activated chip surface. Subsequently, a solution of 1 M ethanolamine-HCl (GE Healthcare) was injected to block unreacted groups, resulting in approximately 400-2500 response units (RU) of immobilized protein. A reference surface was generated by treatment with NHS-EDC and ethanolamine-HCl. […] Compounds were injected for 60 s followed by a dissociation time of up to 1000 s.
# The double-referenced sensorgrams were fit to a simple reversible Langmuir 1:1 reaction mechanism as implemented in the Biacore® T200 and S200 evaluation software (T200 evaluation software version 2.0 and S200 evaluation software version 1.0, GE Healthcare).
# [10] = SPR, immobilized MBP-MCL-1, 25° C.
SMILES,IC50 (MCL-1 [2]) [M],IC50 (BCL-XL) [µM],IC50 (BCL-2) [µM],"EC50 (SUDHL5 [3]; Homo sapiens, SU-DHL-5, 3 h) [M]","EC50 (SUDHL10 [4]; Homo sapiens, SU-DHL10, 3 h) [M]","IC50 (SUDHL5 [7]; Homo sapiens, SU-DHL-5, 72 h) [M]",IC50 (SUDHL10 [8]) [M],IC50 (AMO-1),"IC50 (AMO-1; Homo sapiens, AMO1, 72 h) [µM]",further results
CCOC(=O)c1[nH]c2c(-c3c(CC)nn(C)c3CO)c(Cl)ccc2c1CCCOc1cccc2cc(F)ccc12,–,–,–,–,–,–,–,–,–,"ring closure, isolated yield ([1]; 1,2-bis(bromomethyl)benzene/Cs2CO3, THF/MeCN, 35.9 mM, 50.0 °C): 62%"
CCOC(=O)c1[nH]c2c(-c3c(CO)nn(C)c3C)c(Cl)ccc2c1CCCOc1cccc2ccccc12,–,–,–,–,–,–,–,–,–,"ring closure, isolated yield ([1]; 2,3-bis(chloromethyl)pyrazine/Cs2CO3/NaI, MeCN, 167.0 mM, 70.0 °C): 13%; ring closure, isolated yield ([1]; 2,3-bis(chloromethyl)pyridine HCl/Cs2CO3/NaI, MeCN, 94.0 mM, 75.0 °C): 10%"
CCOC(=O)c1[nH]c2c(-c3c(CO)nn(C)c3CC)c(Cl)ccc2c1CCCOc1cccc2cc(F)ccc12,–,–,–,–,–,–,–,–,–,"ring closure, isolated yield ([1]; 1,2-bis(bromomethyl)benzene/Cs2CO3, THF/MeCN, 36.4 mM, 50.0 °C): 94%"
"Cc1c2c(nn1C)COCc1ccccc1Cn1c(C(=O)O)c(CCCOc3cccc4ccccc34)c3cccc-2c31 (single isomer, unassigned; enantiomer 1) [Example 2, 4,5-Dimethyl-17-[3-(naphthalen-1-yloxy)propyl]-5,7,9,14-tetrahydroindolo[7,1-fg]pyrazolo[3,4-d][2,8]benzoxazacycloundecine-16-carboxylic acid-N-ethylethanamine Salt (Enantiomer 1)]",2.3e-09,> 20,> 20,–,–,–,–,–,–,"EC50 (SUDHL5 [3]): 2e-06 M; EC50 (SUDHL10 [4]): 7.7e-06 M; IC50 (SUDHL5 [5]): 2.3e-06 M; IC50 (SUDHL10 [6]): 7.3e-06 M; IC50 (SUDHL5 [7]): 2.9e-06 M; Kd (MCL-1 [9]; [10]): 6e-09 M; kon [1/M 1/s] (MCL-1 [9]; [10]): 1.1E7 1/M 1/s; koff (MCL-1 [9]; read-out: koff [1/s], SPR, immobilized MBP-MCL-1, 25° C.): 0.068 s⁻¹"

# Continued, in another order:
IC50 (MCL-1 [2]) [M],IC50 (BCL-XL) [µM],IC50 (BCL-2) [µM],"EC50 (SUDHL5 [3]; Homo sapiens, SU-DHL-5, 3 h) [M]","EC50 (SUDHL10 [4]; Homo sapiens, SU-DHL10, 3 h) [M]","IC50 (SUDHL5 [7]; Homo sapiens, SU-DHL-5, 72 h) [M]",IC50 (SUDHL10 [8]) [M],SMILES,IC50 (AMO-1),"IC50 (AMO-1; Homo sapiens, AMO1, 72 h) [µM]",further results
1.9e-09,> 20,> 20,2.1e-06,5.2e-06,3.3e-06,1.9e-06,"CCc1c2c(nn1C)COCc1ccccc1Cn1c(C(=O)O)c(CCCOc3cccc4c3CCC4)c3ccc(F)c-2c31 (racemic) [Example 78, (rac)-1-(3-((2,3-Dihydro-1H-inden-4-yl)oxy)propyl)-14-ethyl-15-fluoro-13-methyl-4,9,11,13-tetrahydrobenzo[3,4]pyrazolo[4′,3′:9,10][1]oxa[6]azacycloundecino[8,7,6-hi]indole-2-carboxylic]",6.82 µM,6.61,"IC50 (SUDHL5 [5]; Homo sapiens, SU-DHL-5, 5 h): 2.1e-06 M; IC50 (SUDHL10 [6]; Homo sapiens, SU-DHL10, 5 h): 3.7e-06 M; IC50 (A2780): 5.04 µM"
4.6e-09,> 20,18,2.1e-06,5.2e-06,3.3e-06,3e-06,"Cc1nn(C)c2c1-c1c(F)ccc3c(CCCOc4cccc5cc(F)ccc45)c(C(=O)O)n(c13)Cc1ccccc1COC2 (racemic) [Example 81, (rac)-15-Fluoro-1-(3-((6-fluoronaphthalen-1-yl)oxy)propyl)-12,14-dimethyl-4,9,11,12-tetrahydrobenzo[3,4]pyrazolo[4′,3′:9,10][1]oxa[6]azacycloundecino[8,7,6-hi]indole-2-carboxylic Acid]",7.08 µM and 4.13 µM,6.52,"IC50 (SUDHL5 [5]; Homo sapiens, SU-DHL-5, 5 h): 2.5e-06 M; IC50 (SUDHL10 [6]; Homo sapiens, SU-DHL10, 5 h): 4e-06 M; IC50 (MV-4-11; Homo sapiens, MV4-11, 72 h): 7.69 µM; IC50 (MV-4-11): 7.82 µM and 6.41 µM"
3.2e-09,> 20,17.8,1.4e-06,6.6e-06,2e-06,2.1e-06,"CCc1nn(C)c2c1-c1c(F)ccc3c(CCCOc4cccc5cc(F)ccc45)c(C(=O)O)n(c13)Cc1ccccc1COC2 (racemic) [Example 90, (rac)-14-Ethyl-15-fluoro-1-(3-((6-fluoronaphthalen-1-yl)oxy)propyl)-12-methyl-4,9,11,12-tetrahydrobenzo[3,4]pyrazolo[4′,3′:9,10][1,6]oxaazacycloundecino[8,7,6-hi]indole-2-carboxylic Acid]",10.3 µM and 6.91 µM,5.58,"IC50 (MV-4-11; Homo sapiens, MV4-11, 72 h): 4.98 µM; IC50 (MV-4-11): 8.53 µM and 6.99 µM"
2.7e-08,–,–,–,–,–,–,"Cc1c2c(nn1C)COCc1ccccc1Cn1c(C(=O)O)c(CCCOc3cccc4ccccc34)c3cccc-2c31 (single isomer, unassigned; enantiomer 2) [Example 3, 4,5-Dimethyl-17-[3-(naphthalen-1-yloxy)propyl]-5,7,9,14-tetrahydroindolo[7,1-fg]pyrazolo[3,4-d][2,8]benzoxazacycloundecine-16-carboxylic acid-N-ethylethanamine Salt (Enantiomer 2)]",–,–,EC50 (SUDHL5 [3]): > 1.2e-05 M; EC50 (SUDHL10 [4]): > 3.3e-05 M; IC50 (SUDHL5 [5]): 8.3e-06 M; IC50 (SUDHL10 [6]): > 3.3e-05 M; IC50 (SUDHL5 [7]): 7.7e-06 M; Kd (MCL-1 [9]; [10]): 1.7e-07 M; koff (MCL-1 [9]; [10]): 0.046 s⁻¹; kon [1/M 1/s] (MCL-1 [9]; [10]): 2.8E5 1/M 1/s

# — US20210253598A1, “ARYL ANNULATED MACROCYCLIC INDOLE DERIVATIVES” (priority 2017, published 2021)
